Measurements from US8097242B2, “Target CA125 peptides for cancer immunotherapy” (The Board of Trustees of the University of Arkansas, priority 2006, dated 2012).
Entries after “also recorded” stand apart in the source; their conditions may differ. Where no end group is shown, it is not given here.

Legend:
[1] = tested on: autologous primary ovarian cancer cells endogenously expressing CA125
Procedure: Cytotoxicity was tested in a 5 hr ^51Cr-release assay against autologous primary ovarian cancer target cells and unpulsed autologous LCL at different Effector cell: Target cell ratios (E:T). Blocking monoclonal antibody (MAb) against non-polymorphic HLA A, B, and C determinants (W6/32) was also used.
Cytotoxicity was tested in a 5 hr 5 Cr-release assay against autologous primary ovarian cancer target cells and autologous LCL at a 20:1 ratio. Blocking monoclonal antibody against non-polymorphic HLA A, B, and C determinants (W6/32) was also used.
Briefly, viable tumor tissue was mechanically minced in RPMI 1640 to portions no larger than 1-3 mm^3 and washed twice with RPMI 1640. The portions of minced tumor were then placed into 250 ml flasks containing 30 ml of enzyme solution [0.14% collagenase Type 1 and 0.01% DNAse 2000 KU/mg; (Sigma)] in RPMI 1640, and incubated on a magnetic stirring apparatus overnight at 4° C. Enzymatically dissociated tumor was then filtered through 150 μm nylon mesh to generate a single cell suspension. The resultant cell suspension was then washed twice in RPMI 1640 plus 10% FBS (fetal bovine serum). Purity of fresh tumor cultures was tested by morphology, immunochemistry staining and/or flow cytometry with antibodies against cytokeratins. Only cell lines containing more than 99% tumor cells were evaluated in cytotoxicity assays. […]

[2] = tested on: primary ovarian cancer cells; assay: Flow cytometry of MHC class I, HLA-A2 and ICAM-1 on primary ovarian tumor cells after IFN-γ; assay type: cell-based, human; details: 500 U/ml for 48 hrs
Procedure: Briefly, tumor cells were harvested with 0.25 percent trypsin in HBBS (Gibco, Grand Island, N.Y.) and washed once in complete medium. Cell suspensions were counted and distributed into 12×75 mm tubes at 5×10^5 cells/tube. Mouse monoclonal antibodies [anti-HLA class I (MAb W6/32); anti-HLA-A2 (BB7-2) and anti-HLA Class II (MAb CR3-43) Accurate Chemical and Scientific Corporation, Westbury, N.Y.); and anti-ICAM-1 (MAb LB-2; Becton Dickinson)] were diluted in cold assay buffer (PBS, pH 7.2, supplemented with 0.1% FCS) and added in a 50-μl volume. A mouse IgG preparation (MAb IgG2a; Becton Dickinson) was used as negative control. Tumor cells were analyzed by FACScan (Becton Dickinson) utilizing Cell Quest software (Becton Dickinson).
In contrast, MHC class II molecule expression was negligible in all 3 primary tumor cell lines tested (data not shown).

[3] = tested on: autologous primary ovarian cancer cells endogenously expressing TADG-12; assay: 51Cr-release cytotoxicity against autologous ovarian cancer cells expressing TADG-12; assay type: cell-based, human
Procedure: FIG. 9. […] A representative experiment from patient 1 is shown.
FIG. 10. CD8^+ CTL recognition of autologous ovarian cancer cells (i.e., K ova) endogenously expressing TADG-12 by TADG-12 P5-stimulated lymphocytes. […] A representative experiment from patient 1 is shown.
Cryopreserved peripheral blood leukocytes (PBL) from patient # 3, harboring advanced stage ovarian cancer, have been used for the generation of DC. Monocyte-derived DC were cultured in AIM-V (Gibco-BRL) supplemented with GM-CSF and IL-4 (1). After 5 days' culture, DC maturation was induced by addition of TNFα, IL-1β and PGE2 (1). Mature DC were pulsed for 1-2 hr at 37° C. with 50 μg/ml of all 8 TADG-12-derived peptides, and washed twice before culture with PBL at a responder:stimulator ratio of 30:1. The culture medium was AIM-V plus 5% human AB serum (Gemini Bioproducts). No IL-2 was added. After 7 days, responder T cells were collected and restimulated with peptide-pulsed DC. For the second and third DC stimulations, the medium was supplemented with 50-100 U/ml IL-2, and the culture period extended to 14 days. After the third cycle, CD8+ T cells were recovered by positive selection with anti-CD8 magnetic beads (Dynal). Subsequent restimulations (passages) of CD8+ T cells used peptide-loaded autologous PBL as antigen-presenting cells.

[4] = tested on: primary ovarian cancer cell lines; assay: Real time PCR of CA125 and TADG-12 mRNA after IFN-γ; assay type: cell-based, human; details: after exposure to IFN-γ, data not shown
Procedure: Importantly, because tissue digestion and prolonged in vitro cell culture may potentially alter CA125 and TADG-12 antigen expression, primary ovarian cancer cell lines were evaluated before and after several in vitro passages for CA125 and TADG-12 expression by real time PCR and flow cytometry. Briefly, RNA extraction was performed on autologous primary ovarian cancer cell lines when tumor cells were 50% to 80% confluent after no passages (i.e., P0) and up to a maximum of twenty passages in vitro. RNA isolation was performed using TRIzol Reagent (Invitrogen) according to the manufacturer's instructions. To verify integrity, 4 μg of RNA from each sample was run in 1% agarose gel using 18S+28S Ribosomal RNA (Sigma) as positive control. Briefly, five μg of total RNA from each sample was reverse-transcribed using SuperScript III first strand cDNA synthesis (Invitrogen). […] Quantitative-RT-PCR was performed with an ABI Prism 7000 Sequence Analyzer using the manufacturer's recommended protocol (Applied Biosystems, Foster City, Calif.) to evaluate expression of CA125 and TADG-12 in primary tumors. […] Primers specific for 18S ribosomal RNA and empirically determined ratios of 18S competimers (Applied Biosystems) were used to control for the amount of cDNA generated from each sample. […]

[5] = tested on: autologous LCL pulsed with CA125-derived peptides; assay: 51Cr-release cytotoxicity of peptide-specific CD8+ T cells against LCL pulsed with CA125 peptides; assay type: cell-based, human; details: CD8+ T cells from a healthy donor, autologous LCL pulsed with 50 μg/ml peptide, 5 hour 51Cr-release
Procedure: Dendritic cells were loaded with the CA125 peptides of Table 3 and used to amplify CD8+ T cells cytotoxic against cells displaying the cognate peptide as described in Example 5. The amplified CD8+ T cell lines were tested for cytoxicity against autologous lymphoblastoid cell lines (LCL) pulsed with the CA125 peptide used to amplify the T cells. Cytotoxicity was tested in a 5 hour ^51Cr-release assay against autologous LCL and autologous LCL pulsed with 50 μg/ml peptide (5, 6). […] Natural killer (NK)-sensitive K562 cells were not lysed (data not shown).

autologous unpulsed LCL = assay: 51Cr-release cytotoxicity against unpulsed autologous LCL; assay type: cell-based, human; details: CTL stimulated by CA125 P10-pulsed autologous DC

Substance: FMVPFTLNFT [P11 CA125/10, FMVPfTLNFT]
- cytotoxicity against autologous primary ovarian cancer cells endogenously expressing CA125 [1]: Unlike peptides 7, 11 and 12, only the CA125 YTLDrDSLYV (SEQ ID NO:10) peptide (P10) was found to be reliably cytotoxic

Substance: IFN-γ: Cytokine to which primary ovarian tumor cells were exposed (500 U/ml for 48 hrs)
- MHC class I, HLA-A2 and ICAM-1 expression levels [2]: markedly up-regulate
- effect of IFN-γ exposure of tumor cells on recognition and killing by peptide-specific CTL ([3]; exposure for 48 hrs): further increased recognition and killing of autologous ovarian cancer cells; also recorded: significantly increase the cytotoxic activity
- expression levels of CA125 and TADG-12 mRNA [4]: did not detect any change

Substance: LLMPfTLNFT (LLMPFTLNFT; listed as Homo sapiens) [P9 CA125/10]
- % Lysis [5]: 0%

Substance: TLLVTGTSRV [P12 CA125/10, TLLVtGTSRV]
- cytotoxicity against autologous primary ovarian cancer cells endogenously expressing CA125 [1]: Unlike peptides 7, 11 and 12, only the CA125 YTLDrDSLYV (SEQ ID NO:10) peptide (P10) was found to be reliably cytotoxic

Substance: YLPKSWTIQV [P5 TADG12/10, YLPKsWTIQV]
- cytotoxicity against autologous primary ovarian cancer cells endogenously expressing TADG-12 ([3]; TADG-12 peptides, CTL stimulated by peptide-pulsed DC, 5 hr 51Cr-release, listed as SEQ ID NO: 17): consistently lyse autologous ovarian tumor cells expressing TADG-12

Substance: YTLDRDSLYV [P10 CA125/10, YTLDrDSLYV]
- cytotoxicity against autologous unpulsed LCL (autologous unpulsed LCL): not against autologous unpulsed LCL
